Experiments:
P2X purinoceptor 7 = molecular target: T1, P2X purinoceptor 7 (Homo sapiens, UniProt Q99572); experiment: Antagonist activity at P2X7 receptor in human RPMI-8226 cells assessed as inhibition of ATP-induced Ca2+ influx by fura-2 staining based assay; type: cell-based
T1 sequence (Q99572 whole entry): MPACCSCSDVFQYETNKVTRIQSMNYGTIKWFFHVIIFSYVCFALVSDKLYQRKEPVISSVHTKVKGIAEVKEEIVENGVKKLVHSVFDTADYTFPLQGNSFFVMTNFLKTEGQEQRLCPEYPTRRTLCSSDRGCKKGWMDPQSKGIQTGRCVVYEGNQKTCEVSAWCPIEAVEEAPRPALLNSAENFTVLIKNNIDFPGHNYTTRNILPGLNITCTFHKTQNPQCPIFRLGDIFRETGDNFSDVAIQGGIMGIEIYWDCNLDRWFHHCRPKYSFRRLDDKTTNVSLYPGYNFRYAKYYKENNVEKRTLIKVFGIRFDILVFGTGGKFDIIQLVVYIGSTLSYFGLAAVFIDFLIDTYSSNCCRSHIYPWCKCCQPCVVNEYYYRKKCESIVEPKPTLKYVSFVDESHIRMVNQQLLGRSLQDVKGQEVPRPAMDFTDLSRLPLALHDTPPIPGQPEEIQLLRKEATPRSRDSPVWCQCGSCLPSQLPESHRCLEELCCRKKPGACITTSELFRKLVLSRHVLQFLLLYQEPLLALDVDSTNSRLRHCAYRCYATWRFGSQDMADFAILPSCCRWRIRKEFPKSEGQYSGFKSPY

[1] = molecular target: T2, P2X purinoceptor 7 (Homo sapiens) (UniProt Q99572); experiment: Antagonist activity at P2X7 receptor in human RPMI-8226 cells assessed as inhibition of ATP-induced Ca2+ influx at 10 uM by fura-2 staining based assay relative to control; type: cell-based; details: filed as antagonist
T2 sequence (whole entry): T1 sequence (Q99572 whole entry)

| Structure (SMILES) | IC50 (P2X purinoceptor 7) [nM] | inhibition [1] [%] |
| --- | --- | --- |
| O=C(C(c1ccccc1)c1ccccc1)N1CCN(CCCn2c(=O)[nH]c3ccccc32)CC1 | 7800 | – |
| Cc1nccn1CCCCN1CCN(C(c2ccccc2)c2ccccc2)CC1 | 3400 | – |
| c1ccc(C(c2ccccc2)N2CCN(CCCCn3ccc4ncccc43)CC2)cc1 | 320 | – |
| c1ccc(C(c2ccccc2)N2CCN(CCCCn3ncc4ccccc43)CC2)cc1 | 190 | – |
| O=c1[nH]c2ccccc2n1CCCN1CCN(C(c2ccccc2)c2ccccc2)CC1 [OXATOMIDE] | 830 | – |
| O=c1[nH]c2ccccc2n1CCCCN1CCN(C(c2ccccc2)c2ccccc2)CC1 | 180 | – |
| Fc1cc2ccn(CCCCN3CCN(C(c4ccccc4)c4ccccc4)CC3)c2cc1F | 130 | – |
| O=c1[nH]c2ccccc2n1CCCN1CCN(S(=O)(=O)c2ccc(F)cc2)CC1 | > 10000 | 87 |
| Cc1ccc2ccn(CCCCN3CCN(C(c4ccccc4)c4ccccc4)CC3)c2c1 | 6500 | – |
| c1ccc(C(c2ccccc2)N2CCN(CCCCn3nnc4ccccc43)CC2)cc1 | 480 | – |
| c1ccc(C(c2ccccc2)N2CCN(CCCCn3cncn3)CC2)cc1 | > 10000 | 87 |
| O=c1[nH]c2ccccc2n1CCCN1CCC(C(O)(c2ccccc2)c2ccccc2)CC1 | 7500 | – |
| c1ccc(C(c2ccccc2)N2CCN(CCCCn3ccc4ccncc43)CC2)cc1 | 240 | – |
| c1ccc(C(c2ccccc2)N2CCN(CCCCn3ccc4ccccc43)CC2)cc1 | 120 | – |
| Cc1nc2ccccc2n1CCCCN1CCN(C(c2ccccc2)c2ccccc2)CC1 | 850 | – |
| Fc1cccc2c1ccn2CCCCN1CCN(C(c2ccccc2)c2ccccc2)CC1 | 150 | – |
| COc1ccc2c(ccn2CCCCN2CCN(C(c3ccccc3)c3ccccc3)CC2)c1 | > 10000 | 54 |
| c1ccc(C(c2ccccc2)N2CCN(CCCCn3ccc4cnccc43)CC2)cc1 | 460 | – |
| O=c1[nH]c2ccccc2n1CCCN1CCN(C2c3ccccc3CCc3ccccc32)CC1 | 5200 | – |

| Structure (SMILES) | IC50 (P2X purinoceptor 7) [nM] | inhibition [1] [%] |
| --- | --- | --- |
| Cc1ccc(S(=O)(=O)N2CCN(CCCn3c(=O)[nH]c4ccccc43)CC2)cc1 | > 10000 | 64 |
| O=c1[nH]c2ccccc2n1CCCCCN1CCN(C(c2ccccc2)c2ccccc2)CC1 | 560 | – |
| Cc1cccc2c1ccn2CCCCN1CCN(C(c2ccccc2)c2ccccc2)CC1 | 5300 | – |
| c1ccc(-c2nnnn2CCCCN2CCN(C(c3ccccc3)c3ccccc3)CC2)cc1 | 3200 | – |
| N#Cc1ccc2c(ccn2CCCCN2CCN(C(c3ccccc3)c3ccccc3)CC2)c1 | 3800 | – |
| O=c1[nH]c2ccccc2n1C/C=C/CN1CCN(C(c2ccccc2)c2ccccc2)CC1 | > 10000 | 81 |
| N#Cc1cn(CCCCN2CCN(C(c3ccccc3)c3ccccc3)CC2)c2ccccc12 | 1500 | – |
| c1ccc(C(c2ccccc2)N2CCN(CCCCn3ccc4cccnc43)CC2)cc1 | 180 | – |
| Fc1ccc2ccn(CCCCN3CCN(C(c4ccccc4)c4ccccc4)CC3)c2c1 | 110 | – |
| COC(=O)c1cccc2ccn(CCCCN3CCN(C(c4ccccc4)c4ccccc4)CC3)c12 | > 10000 | – |
| c1ccc(C(c2ccccc2)N2CCN(CCCCn3cnc4ccccc43)CC2)cc1 | 180 | – |
| Cc1cccc2ccn(CCCCN3CCN(C(c4ccccc4)c4ccccc4)CC3)c12 | 2300 | – |
| O=c1[nH]c2ccccc2n1CCCN1CCC(=C(c2ccccc2)c2ccccc2)CC1 | 2400 | – |
| Cc1cc2ncn(CCCCN3CCN(C(c4ccccc4)c4ccccc4)CC3)c2cc1C | 770 | – |
| Cc1nnnn1CCCCN1CCN(C(c2ccccc2)c2ccccc2)CC1 | 4500 | – |
| c1ccc(-c2nc3ccccc3n2CCCCN2CCN(C(c3ccccc3)c3ccccc3)CC2)cc1 | 1200 | – |
| Fc1ccc2c(ccn2CCCCN2CCN(C(c3ccccc3)c3ccccc3)CC2)c1 | 120 | – |
| O=c1[nH]c2ccccc2n1CCCN1CCN(S(=O)(=O)c2ccc([N+](=O)[O-])cc2)CC1 | > 10000 | 72 |
| O=c1[nH]c2ccccc2n1CCN1CCN(C(c2ccccc2)c2ccccc2)CC1 | 950 | – |

Reference: ChEMBL document CHEMBL5150025, “Exploratory study of oxatomide derivatives with high P2X7 receptor inhibitory activity” (Bioorg Med Chem Lett, 2022)
